Measured values from article PMC3038857, “Using Nuclear Receptor Activity to Stratify Hepatocarcinogens” (PLoS ONE, 2011).
Read-outs that look alike come from different tables or passages of the source.

Tests used:
CYP2B6 = test: CLZD_CYP2B6: Change in expression of CYP2B6 (primary human hepatocytes); assay type: cell-based; conditions: 24 hr
Description: (§1) This is a collection of multiplexed gene expression assays focused on Phase I and II xenobiotic metabolizing enzymes and transporters. Human primary cell cultures were treated with chemicals at 5 concentrations (0.004-40 [drawing 42] M) for 6, 24 and 48 hr. Concentration- and time-response profiles of chemicals were measured by the expression of key nuclear receptor target genes, activities of CYP1A enzymes (EROD), and cell morphology. Fourteen gene targets were monitored by quantitative nuclease protection assay including: six representative cytochrome P-450 genes, four hepatic transporters, three Phase II conjugating enzymes, and one endogenous metabolism gene involved in cholesterol synthesis. The target genes associated with nuclear receptor pathways are as follows: [drawing 43] and [drawing 44] with [drawing 45]; [drawing 46] , [drawing 47] , [drawing 48] , [drawing 49] , [drawing 50] and [drawing 51] with [drawing 52]; [drawing 53] , [drawing 54] , [drawing 55] and [drawing 56] with [drawing 57]; [drawing 58] with [drawing 59]; and [drawing 60] with [drawing 61] . Assays were run in primary human hepatocyte cultures by CellzDirect Invitrogen Inc. (Durham, NC), in collaboration with EPA.
(§2) Multiplexed Gene Expression in Human Primary Hepatocytes: This is a collection of multiplexed gene expression assays focused on Phase I and II metabolic enzymes and transporters. […] Fourteen gene targets were monitored by quantitative nuclease protection assay: six representative cytochrome P450 genes, four hepatic transporters, three Phase II conjugating enzymes, and one endogenous metabolism gene involved in cholesterol synthesis. Cells were exposed at 5 concentrations (0.004-40 µM) for 6, 24 or 48 hr. Gene targets are sentinels for five nuclear receptor signaling pathways: AhR, CAR, PXR, FXR, and PPARα. All gene are associated with nuclear receptor pathways: CYP1A1 and CYP1A2 with AHR; ABCB1, ABCG2, CYP2B6, CYP2C9, CYP2C19 and UGT1A1 with CAR; CYP3A4, GSTA2, SLCO1B1 and SULT2A1 with PXR; HMGCS2 with PPARA; and ABCB11 with FXR. […] Detailed description of the methods, data and analysis methods for this dataset will be presented in a separate publication.

Mouse Liver [1] = conditions: ref ToxRefDB, cited from earlier work
Mouse Liver [2] = conditions: ref ToxRefDB, cited from earlier work; remark: listed apart in the source
Rat Liver [3] = conditions: ref ToxRefDB, cited from earlier work
CYP3A4 = test: CLZD_CYP3A4: Change in expression of CYP3A4 (primary human hepatocytes); assay type: cell-based; conditions: 24 hr
Description: as §1, §2

Rat Liver [4] = conditions: ref ToxRefDB, cited from earlier work; remark: listed apart in the source
Mouse Liver [5] = conditions: ref ToxRefDB, cited from earlier work; remark: listed apart in the source
Rat Liver [6] = conditions: ref ToxRefDB, cited from earlier work; remark: listed apart in the source
CYP1A2 = test: CLZD_CYP1A2: Change in expression of CYP1A2 (primary human hepatocytes); assay type: cell-based; conditions: 24 hr
Description: as §1, §2

PXR (NR1I2) [7] = biological target: T1, PXR (NR1I2) (Homo sapiens, UniProt O75469); test: ATG_PXRE_CIS: Factorial reporter gene assay (HepG2); assay type: cell-based; design: endogenous in cells; host or cells: HepG2; conditions: HepG2
T1 sequence (O75469 1-434): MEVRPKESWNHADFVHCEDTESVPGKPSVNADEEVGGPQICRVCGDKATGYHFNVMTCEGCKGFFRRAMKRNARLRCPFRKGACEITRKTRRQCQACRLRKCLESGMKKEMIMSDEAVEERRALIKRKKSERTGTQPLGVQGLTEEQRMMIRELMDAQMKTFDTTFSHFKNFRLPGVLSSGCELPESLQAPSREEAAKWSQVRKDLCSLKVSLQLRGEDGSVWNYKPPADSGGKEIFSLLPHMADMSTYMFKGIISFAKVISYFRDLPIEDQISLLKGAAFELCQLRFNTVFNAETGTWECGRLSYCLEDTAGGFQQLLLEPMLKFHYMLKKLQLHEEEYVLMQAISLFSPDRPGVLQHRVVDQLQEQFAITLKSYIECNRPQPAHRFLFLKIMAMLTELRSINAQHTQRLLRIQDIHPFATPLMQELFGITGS
Outline: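 HepG2 cells were transfected with a multiple reporter transcription unit (MRTU) library of 48 transcription factor binding sites for the cis-acting PXRE assay. The ERRg, FXR and PPARg assays used a trans mammalian one-hybrid system with a further 25-unit nuclear receptor MRTU library. Chemicals were tested at seven concentrations, from the MTC downward in three-fold steps.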

CYP1A1 = test: CLZD_CYP1A1: Change in expression of CYP1A1 (primary human hepatocytes); assay type: cell-based; conditions: 24 hr
Description: as §1, §2

PXR (NR1I2) [8] = biological target: T1, PXR (NR1I2); test: ATG_PXR_TRANS: Factorial reporter gene assay (HepG2); assay type: cell-based; design: endogenous in cells; host or cells: HepG2; conditions: HepG2
Description: (§3) A multiple reporter transcription unit (MRTU) library consisting of 48 transcription factor binding sites was transfected into the HepG2 human liver hepatoma cell line. In addition to the cis-acting reporter genes (CIS), a modification of the approach was used to generate a trans-system (TRANS) with a mammalian one-hybrid assay consisting of an additional 25 MRTU library reporting the activity of nuclear receptor super-family members. […] These assays were performed by Attagene Inc. (Morrisville NC) under contract to EPA.
(§4) In addition to the cis-acting reporter genes (CIS), a modification of the approach was used to generate a trans-system (TRANS) with a mammalian one-hybrid assay consisting of an additional 25 MRTU library reporting the activity of nuclear receptor super-family members. […] Chemicals were then tested in the CIS and TRANS assays at seven concentrations starting at the MTC and followed by three-fold serial dilutions. These assays were performed by Attagene Inc. (Morrisville NC) under contract to EPA. Detailed description of the methods, data and analysis methods for this dataset will be presented in a separate publication.

[9] = biological target: T2, PPARG (peroxisome proliferator-activated receptor gamma) (Homo sapiens, UniProt P37231); test: ATG_PPARg_TRANS: Factorial reporter gene assay (HepG2); assay type: cell-based; conditions: HepG2
T2 construct: expressed in transfected cells; host or cells: HepG2
T2 sequence (P37231 1-505): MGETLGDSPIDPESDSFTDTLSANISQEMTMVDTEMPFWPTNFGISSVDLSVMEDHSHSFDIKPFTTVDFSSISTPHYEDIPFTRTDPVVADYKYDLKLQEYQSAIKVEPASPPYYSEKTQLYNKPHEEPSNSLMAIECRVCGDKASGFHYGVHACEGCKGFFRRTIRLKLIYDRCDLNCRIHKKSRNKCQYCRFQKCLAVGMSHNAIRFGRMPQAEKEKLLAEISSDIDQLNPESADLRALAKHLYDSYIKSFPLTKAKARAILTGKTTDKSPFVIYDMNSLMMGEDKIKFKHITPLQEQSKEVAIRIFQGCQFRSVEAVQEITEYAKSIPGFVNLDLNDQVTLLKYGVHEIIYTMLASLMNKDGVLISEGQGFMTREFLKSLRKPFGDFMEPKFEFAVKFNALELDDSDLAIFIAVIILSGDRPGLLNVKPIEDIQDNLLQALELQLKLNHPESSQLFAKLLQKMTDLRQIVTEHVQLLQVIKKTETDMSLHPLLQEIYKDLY
Description: as §3, §4

[10] = mouse chronic study, liver, any lesion, coded 6 / Inf, code not explained in the table
[11] = mouse chronic study, liver, preneoplastic lesion, coded 6 / Inf, code not explained in the table
[12] = rat chronic study, liver, preneoplastic lesion, coded 6 / 0, code not explained in the table
[13] = rat chronic study, liver, neoplastic lesion, coded 6 / 0, code not explained in the table
[14] = mouse chronic study, liver, neoplastic lesion, coded 6 / Inf, code not explained in the table
[15] = rat chronic study, liver, any lesion, coded 6 / 0, code not explained in the table
[16] = mouse chronic study, liver, coded 6 / Inf, code not explained in table
[17] = rat chronic study, liver, coded 6 / 0, code not explained in table

SMILES | CLZD_CYP2B6_24 (CYP2B6) | CHR_Mouse_Liver_1_AnyLesion (Mouse Liver [1]; mouse, chronic study) | CHR_Mouse_Liver_2_PreneoplasticLesion (Mouse Liver [2]; mouse, chronic study) | CHR_Rat_Liver_2_PreneoplasticLesion (Rat Liver [3]; rat, chronic study) | CLZD_CYP3A4_24 (CYP3A4) | CHR_Rat_Liver_3_NeoplasticLesion (Rat Liver [4]; rat, chronic study) | CHR_Mouse_Liver_3_NeoplasticLesion (Mouse Liver [5]; mouse, chronic study) | CHR_Rat_Liver_1_AnyLesion (Rat Liver [6]; rat, chronic study) | ATG_PXRE_CIS (PXR (NR1I2) [7]) | CHR_Mouse_Liver_1_AnyLesion (Mouse Liver [1]; [16]) | CHR_Mouse_Liver_2_PreneoplasticLesion (Mouse Liver [2]; [16]) | CHR_Rat_Liver_2_PreneoplasticLesion (Rat Liver [3]; [17]) | CHR_Rat_Liver_3_NeoplasticLesion (Rat Liver [4]; [17]) | CHR_Mouse_Liver_3_NeoplasticLesion (Mouse Liver [5]; [16]) | CHR_Rat_Liver_1_AnyLesion (Rat Liver [6]; [17]) | other results
CNC(=O)Oc1ccccc1OC(C)C [r263] | 5.434 | 6 | 6 | 0 | 5.055 | 0 | 6 | 0 |  |  |  |  |  |  |  | 
CNc1cnn(-c2cccc(C(F)(F)F)c2)c(=O)c1Cl [row 222] | 4.975 |  |  |  | 5.266 |  |  |  | 4.62 |  |  |  |  |  |  | CHR_Mouse_Liver_1_AnyLesion (Mouse Liver [1]; chronic mouse study, liver): 6; CLZD_CYP1A2_24 (CYP1A2): 4.939; CHR_Mouse_Liver_2_PreneoplasticLesion (Mouse Liver [2]; chronic mouse study, liver): 6; CLZD_CYP1A1_24 (CYP1A1): 5.028; CHR_Mouse_Liver_3_NeoplasticLesion (Mouse Liver [5]; chronic mouse study, liver): 6
Clc1cccc(C(Cl)(Cl)Cl)n1 [row 221] | 5.088 |  |  |  |  |  |  |  | 4.292 |  |  |  |  |  |  | CHR_Mouse_Liver_1_AnyLesion (Mouse Liver [1]; chronic mouse study, liver): 6; CHR_Mouse_Liver_2_PreneoplasticLesion (Mouse Liver [2]; chronic mouse study, liver): 6; CHR_Rat_Liver_2_PreneoplasticLesion (Rat Liver [3]; chronic rat study, liver): 0; CHR_Rat_Liver_3_NeoplasticLesion (Rat Liver [4]; chronic rat study, liver): 0; CHR_Mouse_Liver_3_NeoplasticLesion (Mouse Liver [5]; chronic mouse study, liver): 6; CHR_Rat_Liver_1_AnyLesion (Rat Liver [6]; chronic rat study, liver): 6
COC(=O)c1ccccc1S(=O)(=O)NC(=O)Nc1nc(OC(F)F)cc(OC(F)F)n1 [r250] | 5.187 | 6 | 6 | 0 |  | 0 | 6 | 0 | 4.469 |  |  |  |  |  |  | 
CCCOC(=O)c1ccc(C(=O)OCCC)nc1 [Dataset S3 row 4] |  |  |  |  |  |  |  |  |  |  |  |  |  |  |  | CHR_Mouse_Liver_1_AnyLesion (Mouse Liver [1]; [10]): 6; CHR_Mouse_Liver_2_PreneoplasticLesion (Mouse Liver [2]; [11]): 6; CHR_Rat_Liver_2_PreneoplasticLesion (Rat Liver [3]; [12]): 6; CHR_Rat_Liver_3_NeoplasticLesion (Rat Liver [4]; [13]): 6; CHR_Mouse_Liver_3_NeoplasticLesion (Mouse Liver [5]; [14]): 6; CHR_Rat_Liver_1_AnyLesion (Rat Liver [6]; [15]): 6
CCCCOCCOCCOCc1cc2c(cc1CCC)OCO2 [r246] | 5.592 | 6 | 6 | 6 | 5.527 | 0 | 6 | 6 | 5.42 |  |  |  |  |  |  | ATG_PXR_TRANS (PXR (NR1I2) [8]): 4.824; CLZD_CYP1A2_24 (CYP1A2): 5.617; ATG_PPARg_TRANS [9]: 4.602
CN1COCN(Cc2cnc(Cl)s2)/C1=N\[N+](=O)[O-] [chemical 296] |  |  |  |  |  |  |  |  |  | 6 | 6 | 0 | 0 | 6 | 6 | 
COC(=O)c1cccc(C)c1S(=O)(=O)NC(=O)Nc1nc(OCC(F)(F)F)nc(N(C)C)n1 [chemical 317] |  |  |  |  |  |  |  |  |  | 6 | 6 | 0 | 0 | 6 | 0 | 
CCCCNC(=O)OCC#CI [Dataset S3 row 6] |  |  |  |  |  |  |  |  |  |  |  |  |  |  |  | CHR_Mouse_Liver_1_AnyLesion (Mouse Liver [1]; [10]): 6; CHR_Mouse_Liver_2_PreneoplasticLesion (Mouse Liver [2]; [11]): 6; CHR_Rat_Liver_2_PreneoplasticLesion (Rat Liver [3]; [12]): 0; CHR_Rat_Liver_3_NeoplasticLesion (Rat Liver [4]; [13]): 0; CHR_Mouse_Liver_3_NeoplasticLesion (Mouse Liver [5]; [14]): 6; CHR_Rat_Liver_1_AnyLesion (Rat Liver [6]; [15]): 6
CC(C)(C)C(=O)C(Oc1ccc(Cl)cc1)n1cncn1 (centres unmarked) [chemical 304] |  |  |  |  |  |  |  |  |  | 6 | 6 | 0 | 0 | 6 | 6 | 
